Measurements from patent publication US20030232754A1, “Use of GLP-1 peptides” (priority 1996, published 2003).
Like-named read-outs stand apart in the source and are kept apart here. No end group written: not given here.

Legend:
Mice [1] = experiment: Appetite suppression in mice: sucrose consumption immediately after ip injection (Example 2); format: in vivo; conditions: mice fasted two days, ip 85 micrograms (3.4 mg/kg) in saline, tested immediately after injection, 10 minute period; p-value 0.002
Method: Mice were deprived of their normal food for two days and given free access to a 20% sucrose solution on the first day of food deprivation. After the two day food deprivation period, the mice were injected intraperitoneally with 0.5 ml of a solution containing the test substance. Immediately after injection, individual mice were placed in one of eight 15 cm square test boxes with a stainless steel grid floor and a glass drinking tube which projected into the box. […] Consumption of the sucrose solution was measured over a 10 minute period by electronically recording the total amount of contact with the sucrose solution during the test session. The degree of appetite suppression produced by a given test substance was determined by statistical comparison of the mean duration of sucrose consumption by control (vehicle treated) mice with that of mice treated with a test substance. The degree of appetite suppression in a treated group of mice was expressed as percent difference between the test and control group's response duration means. […]

Mice [2] = experiment: Appetite suppression in mice: Complan consumption after subcutaneous injection (Example 4); format: in vivo; conditions: p<0.001
Method: The test method was as described in Example 3 except that the mice were pre-exposed to formula milk (Complan®—a nutritionally complete infant milk substitute) for one day, then fasted one day. On the test day, consumption of Complan® was measured for each mouse during a 10 min period.
Mice were tested for appetite suppression by subcutaneous injection of GLP-1(7-36)amide dissolved in phosphate buffered saline.

Healthy human volunteers = experiment: Effect of iv infusion on satiety, hunger, fullness, appetite (visual analogue scale) and ad libitum energy intake in a double-blind crossover trial; format: in vivo
Source text: Healthy human volunteers (20 subjects) were in a double-blind crossover trial given an iv infusion of 50 pmol/(kg·h) of GLP-1(7-36)amide or saline on separate, but otherwise identical experimental days. The infusion was started at 9.00 and lasted until 15.00. At 9.45 the subjects received a fixed amount of breakfast and at 14.15 they had lunch of an identical composition but ad libitum. The subjects rated their feeling of satiety, hunger, fullness and appetite on a visual analogue scale every half hour. The results are given below:
The energy intake of each subjects was measured. The intakes were 3.9 MJ with GLP-1 and 4.3 MJ with Saline resulting in a p-value of 0.009.

rats = conditions: cited from earlier work
[3] = iv infusion 50 pmol/(kg·h), 9.00 to 15.00, 20 healthy subjects, rated every half hour, p = 0.007

Substance: GLP-1(7-36)amide
- Suppression of sucrose consumption (Mice [1]): 60%
- Suppression of feeding (Complan consumption) (Mice [2]; 1 mg/kg, 30 min after injection): 45%
- Maximum effect, suppression of feeding (Complan consumption) (Mice [2]; highest dose tested 20 mg/kg): 60%

Substance: GLP-1(1-37)
- Energy intake (Healthy human volunteers; ad libitum lunch during iv infusion 50 pmol/(kg·h), saline 4.3 MJ, p-value 0.009): 3.9 mJ
- Satiety (visual analogue scale rating) versus saline (Healthy human volunteers; iv infusion 50 pmol/(kg·h), 9.00 to 15.00, 20 healthy subjects, rated every half hour, p = 0.006): GLP-1 > Saline, p = 0.006
- Appetite (visual analogue scale rating) versus saline (Healthy human volunteers; [3]): GLP-1 < Saline, p = 0.007
- Hunger (visual analogue scale rating) versus saline (Healthy human volunteers; [3]): GLP-1 < Saline, p = 0.007
- Fullness (visual analogue scale rating) versus saline (Healthy human volunteers; iv infusion 50 pmol/(kg·h), 9.00 to 15.00, 20 healthy subjects, rated every half hour, p = 0.010): GLP-1 > Saline, p = 0.010
- Effect on food intake (rats; intracerebroventricular administration, Tang-Christensen et al. 1996): profound effect
- Effect on food intake (rats; intracerebroventricular administration, Turton et al. 1996): profound effect
- Effect on food intake (rats; peripheral administration, Tang-Christensen et al. 1996): no significant effect

Substance: GLP-1(1-36)amide (HDEFERHAEGTFTSDVSSYLEGQAAKEFIAWLVKGR-NH2; UniProt P01275 92-127, looked up, fragment) [fragment 1-36 of GLP-1 as C-terminal amide]
- Effect on food intake (rats; route not stated, Tang-Christensen et al. 1996): no effect
